From the CheMixHub ionic liquid set
± gives the uncertainty stated by the source.

Assay: xn = mol fraction of the nth substance listed
Details: 101 kPa

CCC(=O)[O-].C[NH+](C)Cc1ccccc1 + CN(C)C=O
viscosity [mPa·s]
Details	293.15 K	298.15 K	303.15 K	308.15 K	313.15 K	318.15 K	323.15 K	328.15 K
x1 = 0.006283	0.957 ± 0.058	0.915 ± 0.055	0.878 ± 0.053	0.846 ± 0.051	0.817 ± 0.049	0.79 ± 0.048	0.767 ± 0.046	0.745 ± 0.045
x1 = 0.009868	0.965 ± 0.058	0.923 ± 0.056	0.885 ± 0.053	0.852 ± 0.051	0.822 ± 0.05	0.795 ± 0.048	0.771 ± 0.047	0.749 ± 0.045
x1 = 0.01556	0.974 ± 0.059	0.93 ± 0.056	0.893 ± 0.054	0.858 ± 0.052	0.828 ± 0.05	0.8 ± 0.048	0.776 ± 0.047	0.753 ± 0.046
x1 = 0.01941	0.985 ± 0.06	0.94 ± 0.057	0.901 ± 0.054	0.866 ± 0.052	0.834 ± 0.05	0.807 ± 0.049	0.781 ± 0.047	0.758 ± 0.046
x2 = 0.9599	1.036 ± 0.063	0.986 ± 0.06	0.94 ± 0.057	0.9 ± 0.054	0.865 ± 0.052	0.834 ± 0.05	0.806 ± 0.049	0.781 ± 0.047
x2 = 0.9647	1.025 ± 0.062	0.975 ± 0.059	0.932 ± 0.056	0.893 ± 0.054	0.858 ± 0.052	0.828 ± 0.05	0.801 ± 0.048	0.776 ± 0.047
x2 = 0.9703	1.012 ± 0.061	0.964 ± 0.058	0.922 ± 0.056	0.884 ± 0.053	0.851 ± 0.051	0.821 ± 0.05	0.794 ± 0.048	0.77 ± 0.047
x2 = 0.9751	0.997 ± 0.06	0.95 ± 0.057	0.91 ± 0.055	0.873 ± 0.053	0.841 ± 0.051	0.813 ± 0.049	0.787 ± 0.048	0.764 ± 0.046
